Test results from ChEMBL document CHEMBL3351764, “Design, synthesis and biological activity of flavonoid derivatives as selective agonists for neuromedin U 2 receptor” (Bioorg Med Chem, 2014).
Calls of active or inactive are those of the source.

Experiments:
[1] = target: Adrenocorticotropic hormone receptor (Homo sapiens) (UniProt Q01718); assay: Agonist activity at human MC2 receptor at 100 uM to 5 mM
[2] = target: Adrenocorticotropic hormone receptor (Mus musculus) (UniProt Q64326); assay: Agonist activity at mouse MC2 receptor at 100 uM to 5 mM
[3] = target: Melanocortin receptor 3 (Mus musculus) (UniProt P33033); assay: Agonist activity at mouse MC3 receptor at 100 uM to 5 mM
[4] = target: Melanocortin receptor 4 (Mus musculus) (UniProt P56450); assay: Agonist activity at mouse MC4 receptor at 100 uM to 5 mM
[5] = target: Melanocortin receptor 5 (Mus musculus) (UniProt P41149); assay: Agonist activity at mouse MC5 receptor at 100 uM to 5 mM
[6] = target: T1, Orexin receptor type 2 (Homo sapiens) (UniProt O43614); assay: Agonist activity at human orexin 2 receptor at 100 uM to 5 mM
T1 sequence (whole entry): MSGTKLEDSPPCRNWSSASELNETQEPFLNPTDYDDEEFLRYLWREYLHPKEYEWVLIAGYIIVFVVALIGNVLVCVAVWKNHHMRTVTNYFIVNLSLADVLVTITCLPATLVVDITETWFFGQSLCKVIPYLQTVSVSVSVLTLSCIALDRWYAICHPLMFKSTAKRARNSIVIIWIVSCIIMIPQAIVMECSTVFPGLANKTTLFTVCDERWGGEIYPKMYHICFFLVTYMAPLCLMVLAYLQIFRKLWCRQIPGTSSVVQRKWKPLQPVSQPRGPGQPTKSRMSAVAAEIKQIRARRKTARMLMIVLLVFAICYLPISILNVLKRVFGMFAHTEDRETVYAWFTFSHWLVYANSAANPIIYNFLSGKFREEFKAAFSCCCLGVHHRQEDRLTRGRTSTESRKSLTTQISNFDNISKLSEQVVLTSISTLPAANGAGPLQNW

[7] = target: D(1A) dopamine receptor (Homo sapiens) (UniProt P21728); assay: Agonist activity at human D1 receptor at 100 uM to 5 mM
[8] = target: Adenosine receptor A2a (Homo sapiens) (UniProt P29274); assay: Agonist activity at human A2a receptor at 100 uM to 5 mM
[9] = target: T2, Adenosine receptor A3 (Homo sapiens) (UniProt P0DMS8); assay: Agonist activity at human A3 receptor at 100 uM to 5 mM
T2 sequence (whole entry): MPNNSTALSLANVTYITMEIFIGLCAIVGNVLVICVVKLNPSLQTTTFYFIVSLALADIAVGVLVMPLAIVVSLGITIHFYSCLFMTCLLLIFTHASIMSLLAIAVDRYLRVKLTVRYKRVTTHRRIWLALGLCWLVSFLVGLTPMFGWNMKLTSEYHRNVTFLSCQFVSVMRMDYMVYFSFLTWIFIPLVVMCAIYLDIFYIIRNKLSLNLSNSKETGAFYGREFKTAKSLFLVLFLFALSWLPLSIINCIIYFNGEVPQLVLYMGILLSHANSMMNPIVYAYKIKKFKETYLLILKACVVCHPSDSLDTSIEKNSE

[10] = target: T3, Parathyroid hormone/parathyroid hormone-related peptide receptor (Homo sapiens) (UniProt Q03431); assay: Agonist activity at human PTH receptor at 100 uM to 5 mM
T3 sequence (whole entry): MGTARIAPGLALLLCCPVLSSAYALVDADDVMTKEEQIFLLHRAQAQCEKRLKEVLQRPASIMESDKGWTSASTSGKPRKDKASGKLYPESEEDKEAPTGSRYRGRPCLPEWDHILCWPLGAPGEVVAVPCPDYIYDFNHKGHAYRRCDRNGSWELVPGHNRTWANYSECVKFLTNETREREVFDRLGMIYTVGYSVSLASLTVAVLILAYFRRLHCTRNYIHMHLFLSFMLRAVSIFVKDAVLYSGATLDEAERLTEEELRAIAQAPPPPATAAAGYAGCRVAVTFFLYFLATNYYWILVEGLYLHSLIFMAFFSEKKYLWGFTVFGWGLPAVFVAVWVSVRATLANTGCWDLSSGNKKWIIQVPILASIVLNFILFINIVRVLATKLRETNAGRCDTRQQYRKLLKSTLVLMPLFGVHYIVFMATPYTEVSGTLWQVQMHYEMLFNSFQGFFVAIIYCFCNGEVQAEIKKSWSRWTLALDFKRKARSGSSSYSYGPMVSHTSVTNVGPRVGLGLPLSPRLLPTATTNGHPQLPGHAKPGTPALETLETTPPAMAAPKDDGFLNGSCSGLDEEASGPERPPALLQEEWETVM

[11] = target: T4, C5a anaphylatoxin chemotactic receptor 1 (Homo sapiens) (UniProt P21730); assay: Agonist activity at human C5a receptor at 100 uM to 5 mM
T4 sequence (whole entry): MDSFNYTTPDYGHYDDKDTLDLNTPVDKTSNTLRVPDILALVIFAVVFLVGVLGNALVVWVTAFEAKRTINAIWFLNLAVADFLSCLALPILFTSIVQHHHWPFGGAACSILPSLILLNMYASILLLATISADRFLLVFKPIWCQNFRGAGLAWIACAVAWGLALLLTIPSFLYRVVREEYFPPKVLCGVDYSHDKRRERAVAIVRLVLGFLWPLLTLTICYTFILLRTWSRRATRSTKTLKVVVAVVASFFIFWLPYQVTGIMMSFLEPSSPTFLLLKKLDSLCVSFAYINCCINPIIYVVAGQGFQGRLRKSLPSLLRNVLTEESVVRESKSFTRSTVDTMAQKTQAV

[12] = target: T5, Neuropeptide Y receptor type 5 (Homo sapiens) (UniProt Q15761); assay: Agonist activity at human NPY5 receptor at 100 uM to 5 mM
T5 sequence (whole entry): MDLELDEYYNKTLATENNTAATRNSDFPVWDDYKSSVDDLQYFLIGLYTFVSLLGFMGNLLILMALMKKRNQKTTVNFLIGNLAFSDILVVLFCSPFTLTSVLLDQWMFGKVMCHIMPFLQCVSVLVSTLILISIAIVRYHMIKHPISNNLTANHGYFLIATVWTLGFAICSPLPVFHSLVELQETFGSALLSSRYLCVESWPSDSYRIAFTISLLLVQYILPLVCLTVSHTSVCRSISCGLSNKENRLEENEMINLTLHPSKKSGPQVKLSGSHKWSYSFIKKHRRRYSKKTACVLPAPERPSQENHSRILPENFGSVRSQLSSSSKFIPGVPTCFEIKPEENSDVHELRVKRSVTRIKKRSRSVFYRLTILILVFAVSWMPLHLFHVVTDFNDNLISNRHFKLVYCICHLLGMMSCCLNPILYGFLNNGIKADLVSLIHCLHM

Measured: Activity

Melanocortin receptor 3 (Mus musculus), sequence (P33033 whole entry): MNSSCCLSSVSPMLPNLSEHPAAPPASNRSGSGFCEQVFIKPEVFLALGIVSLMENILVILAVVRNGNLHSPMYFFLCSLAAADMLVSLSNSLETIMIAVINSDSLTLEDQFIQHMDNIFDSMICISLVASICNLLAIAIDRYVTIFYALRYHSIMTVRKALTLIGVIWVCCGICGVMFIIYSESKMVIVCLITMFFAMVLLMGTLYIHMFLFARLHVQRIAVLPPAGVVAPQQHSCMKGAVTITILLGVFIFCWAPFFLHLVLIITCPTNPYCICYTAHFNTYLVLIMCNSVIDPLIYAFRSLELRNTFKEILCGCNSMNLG
D(1A) dopamine receptor (Homo sapiens), sequence (P21728 whole entry): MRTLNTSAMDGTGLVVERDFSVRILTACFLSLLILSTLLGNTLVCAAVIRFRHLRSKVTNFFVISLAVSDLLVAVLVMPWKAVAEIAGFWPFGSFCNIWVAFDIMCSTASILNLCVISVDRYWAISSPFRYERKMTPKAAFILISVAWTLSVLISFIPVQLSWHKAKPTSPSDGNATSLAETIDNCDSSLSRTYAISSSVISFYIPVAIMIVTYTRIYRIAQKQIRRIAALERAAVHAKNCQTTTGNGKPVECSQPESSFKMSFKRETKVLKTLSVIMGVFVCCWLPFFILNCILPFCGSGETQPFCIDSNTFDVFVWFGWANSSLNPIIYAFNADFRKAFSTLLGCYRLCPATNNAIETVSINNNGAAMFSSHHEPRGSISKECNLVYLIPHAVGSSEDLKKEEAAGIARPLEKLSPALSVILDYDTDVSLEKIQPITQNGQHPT
Melanocortin receptor 4 (Mus musculus), sequence (P56450 whole entry): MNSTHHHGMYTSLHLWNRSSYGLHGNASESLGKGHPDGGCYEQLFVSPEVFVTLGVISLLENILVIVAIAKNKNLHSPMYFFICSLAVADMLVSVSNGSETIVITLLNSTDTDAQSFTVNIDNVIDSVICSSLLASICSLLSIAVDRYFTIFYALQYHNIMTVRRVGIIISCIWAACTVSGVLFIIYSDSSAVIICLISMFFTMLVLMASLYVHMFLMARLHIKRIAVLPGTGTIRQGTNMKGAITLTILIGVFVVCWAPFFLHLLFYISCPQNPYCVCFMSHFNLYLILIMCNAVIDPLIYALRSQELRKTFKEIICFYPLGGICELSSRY
Adrenocorticotropic hormone receptor (Mus musculus), sequence (Q64326 whole entry): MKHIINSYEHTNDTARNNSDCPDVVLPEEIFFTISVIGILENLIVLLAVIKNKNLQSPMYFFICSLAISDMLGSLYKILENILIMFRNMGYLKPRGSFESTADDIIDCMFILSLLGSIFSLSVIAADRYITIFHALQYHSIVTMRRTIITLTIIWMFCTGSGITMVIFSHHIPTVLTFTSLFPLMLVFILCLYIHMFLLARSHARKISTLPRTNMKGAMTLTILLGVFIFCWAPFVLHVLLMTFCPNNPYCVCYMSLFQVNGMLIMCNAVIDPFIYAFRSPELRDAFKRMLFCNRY
Adenosine receptor A2a (Homo sapiens), sequence (P29274 whole entry): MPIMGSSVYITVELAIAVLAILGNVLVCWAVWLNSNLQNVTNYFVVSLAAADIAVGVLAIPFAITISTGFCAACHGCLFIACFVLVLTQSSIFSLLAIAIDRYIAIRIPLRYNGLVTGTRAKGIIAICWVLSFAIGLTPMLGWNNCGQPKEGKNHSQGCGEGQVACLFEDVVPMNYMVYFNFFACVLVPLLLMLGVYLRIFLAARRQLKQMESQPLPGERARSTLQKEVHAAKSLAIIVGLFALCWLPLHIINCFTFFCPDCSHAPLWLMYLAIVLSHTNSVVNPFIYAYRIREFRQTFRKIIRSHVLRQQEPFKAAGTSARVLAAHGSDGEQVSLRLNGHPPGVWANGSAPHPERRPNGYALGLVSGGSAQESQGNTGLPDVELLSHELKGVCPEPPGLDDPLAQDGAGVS
Adrenocorticotropic hormone receptor (Homo sapiens), sequence (Q01718 whole entry): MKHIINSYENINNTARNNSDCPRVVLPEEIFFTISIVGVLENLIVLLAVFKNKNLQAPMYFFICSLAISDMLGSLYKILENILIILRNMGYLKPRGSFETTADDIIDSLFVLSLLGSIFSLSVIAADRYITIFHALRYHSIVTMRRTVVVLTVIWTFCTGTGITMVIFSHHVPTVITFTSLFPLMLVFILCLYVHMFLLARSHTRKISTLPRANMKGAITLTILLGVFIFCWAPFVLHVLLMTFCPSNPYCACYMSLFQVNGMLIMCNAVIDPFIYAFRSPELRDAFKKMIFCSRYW
Melanocortin receptor 5 (Mus musculus), sequence (P41149 whole entry): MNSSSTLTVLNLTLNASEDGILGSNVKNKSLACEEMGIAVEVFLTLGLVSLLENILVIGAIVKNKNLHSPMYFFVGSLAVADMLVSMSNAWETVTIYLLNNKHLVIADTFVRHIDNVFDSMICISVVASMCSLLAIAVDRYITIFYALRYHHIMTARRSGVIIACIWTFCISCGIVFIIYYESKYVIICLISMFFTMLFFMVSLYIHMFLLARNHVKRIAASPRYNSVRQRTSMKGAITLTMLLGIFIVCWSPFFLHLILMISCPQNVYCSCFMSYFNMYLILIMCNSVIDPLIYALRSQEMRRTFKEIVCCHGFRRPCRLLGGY

O=c1c(O)c(-c2ccc(Br)cc2F)oc2ccccc12
inactive: [1] | [2] | [3] | [4] | [5] | [6] | [7] | [8] | [9] | [10] | [11] | [12]

Clc1ccc(C2C=Cc3ccccc3O2)c(Cl)c1 (racemic)
inactive: [1] | [2] | [3] | [4] | [5] | [6] | [7] | [8] | [9] | [10] | [11] | [12]

COc1cc(-c2cc(=O)c3ccccc3o2)ccc1O
inactive: [1] | [2] | [3] | [4] | [5] | [6] | [7] | [8] | [9] | [10] | [11] | [12]

O=c1c(O)c(-c2cccc(Cl)c2)oc2ccccc12
inactive: [1] | [2] | [3] | [4] | [5] | [6] | [7] | [8] | [9] | [10] | [11] | [12]

O=c1c(O)c(-c2ccccc2F)oc2ccccc12
inactive: [1] | [2] | [3] | [4] | [5] | [6] | [7] | [8] | [9] | [10] | [11] | [12]

COc1c(-c2cc(Br)ccc2F)oc2ccccc2c1=O
inactive: [1] | [2] | [3] | [4] | [5] | [6] | [7] | [8] | [9] | [10] | [11] | [12]

COc1ccc(-c2cc(=O)c3ccccc3o2)cc1O
inactive: [1] | [2] | [3] | [4] | [5] | [6] | [7] | [8] | [9] | [10] | [11] | [12]

COc1ccc(C2C=Cc3ccccc3O2)cc1 (racemic)
inactive: [1] | [2] | [3] | [4] | [5] | [6] | [7] | [8] | [9] | [10] | [11] | [12]

O=c1c(O)c(-c2c(F)ccc(F)c2Cl)oc2ccccc12
inactive: [1] | [2] | [3] | [4] | [5] | [6] | [7] | [8] | [9] | [10] | [11] | [12]
